Reference: patent publication US10774051B2, “6-membered heterocyclic derivatives and pharmaceutical composition comprising the same” (Shionogi & Co., Ltd., priority 2015, dated 2020)

Biological target: human P2X7 receptor (Homo sapiens, UniProt Q99572, R270H/Y155H)
Assay: Evaluation of human P2X7 receptor inhibitory activity (Yo-Pro uptake, BzATP stimulation, FLIPR TETRA)
Type: cell-based
Conditions: 1321N1 cells stably expressing human P2X7 receptor; BzATP stimulation, Yo-Pro uptake; read-out: IC50 (antagonistic activity for the human P2X7 receptor)
Outline: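 1321N1 cells stably expressing human P2X7 (T606C/G952A SNP variant), in HBSS buffer pH 7.4-7.5 with Yo-Pro, stimulated with BzATP; compound added 8 min after agonist. Fluorescence followed for 20 min on FLIPR; max-minus-min change gave % inhibition, IC50 by logistic fit.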

| Compound | IC50 [nM] |
| --- | --- |
| COc1cn(Cc2cc(F)cc(F)c2)c(Nc2ccc3c(c2C)COC3)nc1=O [Compound I-0900] | 12 |
| COc1cn(Cc2ccc(F)c(Cl)c2)c(Nc2cc3c(cc2C)OCC=C3)nc1=O [Compound I-0912] | 22 |
| COc1cn(Cc2ccc(F)c(Cl)c2)c(Nc2cc3c(cc2C)OCCC3)nc1=O [Compound I-0914] | 22 |
| COc1cn(Cc2cc(F)cc(F)c2)c(Nc2cc(C)c(OC(F)(F)F)cc2C)nc1=O [Compound I-0924] | 17 |
| COc1cn(Cc2cc(F)cc(F)c2)c(Nc2c(C)ccc(C)c2F)nc1=O [Compound I-0928] | 10 |
| COc1cn(Cc2cc(F)c(F)c(F)c2)c(Nc2cc3scnc3cc2C)nc1=O [Compound I-0935] | 6 |
| COc1cn(Cc2cc(F)c(F)c(F)c2)c(Nc2ccc3[nH]ccc3c2C)nc1=O [Compound I-0939] | 4 |
| COc1cn(Cc2cc(F)c(F)c(F)c2)c(Nc2cc3sc(C)nc3cc2C)nc1=O [Compound I-0940] | 240 |
| COc1cn(Cc2ccc(F)c(Cl)c2)c(Nc2cc3cc[nH]c3cc2C)nc1=O [Compound I-0941] | 12 |
| COc1cn(Cc2cc(F)c(F)c(F)c2)c(Oc2cc(-c3ncco3)ccc2C)nc1=O [Compound I-0942] | 230 |
| COc1cc(C)c(Nc2cc(=O)c(OC)cn2Cc2ccccc2)cc1C [Compound I-0945] | 170 |

Same assay, conditions: antagonistic activity for the human P2X7 receptor; read-out: IC50

| Compound | IC50 [nM] |
| --- | --- |
| COc1cn(Cc2cc(F)c(F)c(F)c2)c(Nc2cc3c(cc2C)OCC3)nc1=O [Compound I-0866] | < 10 |
| Cc1ccc(-c2cscn2)cc1Nc1nc(=O)c(F)cn1Cc1cc(F)cc(F)c1 [Compound I-0867] | < 10 |
| CCOc1cc(C)c(Nc2nc(=O)c(OC)cn2Cc2cc(F)c(F)c(F)c2)cc1F [Compound I-0868] | 10 to 100 |
| COc1cn(Cc2cc(F)c(F)c(F)c2)c(Nc2cc(OC(F)(F)F)ccc2C)nc1=O [Compound I-0869] | 10 to 100 |
| COc1cn(Cc2ccccc2)c(Nc2cc(OC(F)F)ccc2C)nc1=O [Compound I-0870] | 10 to 100 |
| COc1cn(Cc2ccc(F)c(Cl)c2)c(Nc2cc(OC(F)F)ccc2C)nc1=O [Compound I-0871] | 10 to 100 |
| COc1cn(Cc2cc(F)cc(Cl)c2)c(Nc2cc(OC(F)F)ccc2C)nc1=O [Compound I-0872] | 10 to 100 |
| COc1cn(Cc2ccc(F)c(F)c2)c(Nc2cc(OC(F)F)ccc2C)nc1=O [Compound I-0873] | 10 to 100 |
| COc1cn(Cc2cc(F)cc(F)c2)c(Nc2cc(OC(F)F)ccc2C)nc1=O [Compound I-0874] | 10 to 100 |
| COc1cn(Cc2ccccc2)c(Nc2cc(OC(F)F)c(C)cc2C)nc1=O [Compound I-0875] | 10 to 100 |
| COc1cn(Cc2ccc(F)c(Cl)c2)c(Nc2cc(OC(F)F)c(C)cc2C)nc1=O [Compound I-0876] | < 10 |
| COc1cn(Cc2cc(F)cc(Cl)c2)c(Nc2cc(OC(F)F)c(C)cc2C)nc1=O [Compound I-0877] | 10 to 100 |
| COc1cn(Cc2ccc(F)c(F)c2)c(Nc2cc(OC(F)F)c(C)cc2C)nc1=O [Compound I-0878] | < 10 |
| COc1cn(Cc2cc(F)cc(F)c2)c(Nc2cc(OC(F)F)c(C)cc2C)nc1=O [Compound I-0879] | < 10 |
| COc1cn(Cc2ccc(F)c(Cl)c2)c(Nc2cccc3c2ccc(=O)n3C)nc1=O [Compound I-0881] | 100 to 500 |
| COc1cn(Cc2cc(F)cc(F)c2)c(Nc2cccc3c2ccc(=O)n3C)nc1=O [Compound I-0882] | 500 to 1000 |
| COc1cn(Cc2ccccc2)c(Nc2cc(N3CCCC3)ccc2C)nc1=O [Compound I-0883] | 10 to 100 |
| COc1cn(Cc2ccc(F)c(Cl)c2)c(Nc2cc(N3CCCC3)ccc2C)nc1=O [Compound I-0884] | 10 to 100 |
| COc1cn(Cc2cc(F)cc(F)c2)c(Nc2cc(N3CCCC3)ccc2C)nc1=O [Compound I-0885] | 10 to 100 |
| COc1cn(Cc2ccccc2)c(Nc2cc(F)c(Cl)cc2C)nc1=O [Compound I-0886] | 10 to 100 |
| COc1cn(Cc2ccc(F)c(Cl)c2)c(Nc2cc(F)c(Cl)cc2C)nc1=O [Compound I-0887] | 10 to 100 |
| COc1cn(Cc2ccccc2)c(Nc2cc(OC3CC3)ccc2C)nc1=O [Compound I-0888] | 10 to 100 |
| COc1cn(Cc2ccc(F)c(Cl)c2)c(Nc2cc(OC3CC3)ccc2C)nc1=O [Compound I-0889] | < 10 |

| Compound | IC50 [nM] |
| --- | --- |
| COc1cn(Cc2ccc(F)c(F)c2)c(Nc2cc(OC3CC3)ccc2C)nc1=O [Compound I-0890] | 10 to 100 |
| COc1cn(Cc2cc(F)cc(Cl)c2)c(Nc2cc(OC3CC3)ccc2C)nc1=O [Compound I-0891] | 10 to 100 |
| COc1cn(Cc2cc(F)cc(F)c2)c(Nc2cc(OC3CC3)ccc2C)nc1=O [Compound I-0892] | 10 to 100 |
| CCOc1cn(Cc2ccccc2)c(Nc2cc(OC)c(OC)cc2CC)nc1=O [Compound I-0893] | < 10 |
| COc1cn(Cc2cc(F)c(F)c(F)c2)c(Nc2cc(-n3cccc3)ccc2C)nc1=O [Compound I-0894] | < 10 |
| COc1cn(Cc2ccccc2)c(Nc2cc(Oc3ccccn3)ccc2C)nc1=O [Compound I-0895] | 10 to 100 |
| COc1cn(Cc2ccc(F)c(Cl)c2)c(Nc2cc(Oc3ccccn3)ccc2C)nc1=O [Compound I-0896] | < 10 |
| COc1cn(Cc2cc(F)cc(F)c2)c(Nc2cc(Oc3ccccn3)ccc2C)nc1=O [Compound I-0897] | < 10 |
| COc1cn(Cc2ccc(F)cc2)c(Nc2cc(Oc3ccccn3)ccc2C)nc1=O [Compound I-0898] | 10 to 100 |
| COc1cn(Cc2cc(F)c(F)c(F)c2)c(Nc2cc(Oc3ccccn3)ccc2C)nc1=O [Compound I-0899] | < 10 |
| COc1cn(Cc2ccccc2)c(Nc2cccc3c(=O)n(C)ccc23)nc1=O [Compound I-0901] | 100 to 500 |
| COc1cn(Cc2ccc(F)c(Cl)c2)c(Nc2cccc3c(=O)n(C)ccc23)nc1=O [Compound I-0902] | 10 to 100 |
| COc1cn(Cc2ccc(F)c(F)c2)c(Nc2cccc3c(=O)n(C)ccc23)nc1=O [Compound I-0903] | 10 to 100 |
| COc1cn(Cc2cc(F)cc(Cl)c2)c(Nc2cccc3c(=O)n(C)ccc23)nc1=O [Compound I-0904] | 10 to 100 |
| COc1cn(Cc2cc(F)cc(F)c2)c(Nc2cccc3c(=O)n(C)ccc23)nc1=O [Compound I-0905] | 100 to 500 |
| COc1cn(Cc2ccc(F)c(Cl)c2)c(Nc2cc3c(cc2C)COC3)nc1=O [Compound I-0906] | 10 to 100 |
| COc1cn(Cc2ccc(F)c(Cl)c2)c(Nc2ccc3c(c2C)COC3)nc1=O [Compound I-0907] | < 10 |
| CCc1cc(OC)c(OC)cc1Nc1nc(=O)c(OC)cn1Cc1cc(F)c(F)c(F)c1 [Compound I-0908] | < 10 |
| CCOc1cn(Cc2ccc(F)c(Cl)c2)c(Nc2cc(OC)c(OC)cc2CC)nc1=O [Compound I-0909] | 10 to 100 |
| COc1cn(Cc2cc(F)c(F)c(F)c2)c(Nc2ccc3c(c2C)COC3)nc1=O [Compound I-0911] | 10 to 100 |
| COc1cn(Cc2cc(F)cc(F)c2)c(Nc2cc3c(cc2C)OCCC3)nc1=O [Compound I-0913] | 10 to 100 |
| C#Cc1cc(Nc2nc(=O)c(OC)cn2Cc2cc(F)cc(F)c2)c(C)cc1F [Compound I-0915] | 10 to 100 |
| C#Cc1cc(Nc2nc(=O)c(OC)cn2Cc2ccc(F)c(Cl)c2)c(C)cc1F [Compound I-0916] | 10 to 100 |

| Compound | IC50 [nM] |
| --- | --- |
| COc1cn(Cc2cc(F)c(F)c(F)c2)c(Nc2cc3c(cc2C)OCCC3)nc1=O [Compound I-0917] | 10 to 100 |
| CCOc1cc(Nc2nc(=O)c(OC)cn2Cc2ccccc2)c(C)cc1F [Compound I-0918] | 10 to 100 |
| CCOc1cc(Nc2nc(=O)c(OC)cn2Cc2ccc(F)c(Cl)c2)c(C)cc1F [Compound I-0919] | 10 to 100 |
| CCOc1cc(Nc2nc(=O)c(OC)cn2Cc2cc(F)cc(F)c2)c(C)cc1F [Compound I-0920] | 10 to 100 |
| CCOc1cc(Nc2nc(=O)c(OC)cn2Cc2cc(F)c(F)c(F)c2)c(C)cc1F [Compound I-0921] | < 10 |
| COc1cn(Cc2ccccc2)c(Nc2cc(C)c(OC(F)(F)F)cc2C)nc1=O [Compound I-0922] | < 10 |
| COc1cn(Cc2ccc(F)c(Cl)c2)c(Nc2cc(C)c(OC(F)(F)F)cc2C)nc1=O [Compound I-0923] | 10 to 100 |
| COc1cn(Cc2cc(F)c(F)c(F)c2)c(Nc2cc(C)c(OC(F)(F)F)cc2C)nc1=O [Compound I-0925] | 10 to 100 |
| COc1cn(Cc2ccccc2)c(Nc2c(C)ccc(C)c2F)nc1=O [Compound I-0926] | 10 to 100 |
| COc1cn(Cc2ccc(F)c(Cl)c2)c(Nc2c(C)ccc(C)c2F)nc1=O [Compound I-0927] | < 10 |
| COc1cn(Cc2cc(F)c(F)c(F)c2)c(Nc2c(C)ccc(C)c2F)nc1=O [Compound I-0929] | < 10 |
| COc1cn(Cc2ccc(F)c(Cl)c2)c(Nc2cc3c(cc2C)OCCC3=O)nc1=O [Compound I-0930] | 100 to 500 |
| COc1cn(Cc2cc(F)c(F)c(F)c2)c(Nc2cc(N3CCOCC3)ccc2C)nc1=O [Compound I-0931] | 10 to 100 |
| COc1cn(Cc2cc(F)c(F)c(F)c2)c(Nc2cc(OCC(F)(F)F)ccc2C)nc1=O [Compound I-0932] | 10 to 100 |
| COc1cn(Cc2cc(F)c(F)c(F)c2)c(Nc2ccc(Oc3ccnc(F)c3)cc2C)nc1=O [Compound I-0933] | 100 to 500 |
| COc1cn(Cc2cc(F)c(F)c(F)c2)c(Nc2cc3sc(C(F)F)nc3cc2C)nc1=O [Compound I-0934] | 10 to 100 |
| COc1ccc(C)cc1Nc1nc(=O)c(OC)cn1Cc1cc(F)c(F)c(F)c1 [Compound I-0936] | 10 to 100 |
| Cc1nc2cc(C)c(Nc3nc(=O)c(F)cn3Cc3cc(F)c(F)c(F)c3)cc2s1 [Compound I-0937] | < 10 |
| COc1cn(Cc2cc(F)c(F)c(F)c2)c(Nc2cc3cc[nH]c3cc2C)nc1=O [Compound I-0938] | < 10 |
| COc1cn(Cc2cc(F)c(F)c(F)c2)c(Nc2ccc(OCF)cc2C)nc1=O [Compound I-0943] | < 10 |
| COc1ccc(Nc2cc(=O)c(OC)cn2Cc2ccc(F)c(Cl)c2)c(C)c1 [Compound I-0944] | 100 to 500 |
